Source: ChEMBL document CHEMBL4732128, “Methylsulfanylpyridine based diheteroaryl isocombretastatin analogs as potent anti-proliferative agents” (Eur J Med Chem, 2021)
Converted amounts (≈) assume the structure as drawn. One block for each molecule: values may come before it. The source made the active and inactive calls. The rule behind the calls is not given here.

How the values were obtained:
[1] = tested on: HT-29; experiment: Induction of cell cycle arrest in human HT-29 cells assessed as accumulation of cells at G2/M phase at 100 nM after 72 hrs by propidium iodide staining-based flow cytometric analysis; format: functional
[2] = tested on: HT-29; experiment: Antiproliferative activity against human HT-29 cells assessed as inhibition of cell growth after 72 hrs by XTT assay; format: functional, cell-based; conditions: HT-29, 72 h
[3] = tested on: HeLa; experiment: Induction of apoptosis in human HeLa cells assessed as increase in cell accumulation at sub-G0/G1 phase at 100 nM incubated for 72 hrs by propidium iodide staining based flow cytometry; format: functional
[4] = tested on: HL-60; experiment: Induction of cell cycle arrest in human HL-60 cells assessed as accumulation of cells at G2/M phase at 1 nM after 24 to 72 hrs by propidium iodide staining-based flow cytometric analysis; format: functional; conditions: time 24-72 hrs
[5] = tested on: HeLa; experiment: Antiproliferative activity against human HeLa cells assessed as inhibition of cell growth after 72 hrs by XTT assay; format: functional, cell-based
[6] = tested on: HEK293; experiment: Induction of apoptosis in human HEK293 cells; format: cell-based
[7] = tested on: HL-60; experiment: Induction of apoptosis in human HL-60 cells assessed as increase in cell accumulation at sub-G0/G1 phase at 100 nM incubated for 48 hrs by propidium iodide staining based flow cytometry; format: functional
[8] = tested on: HL-60; experiment: Induction of cell cycle arrest in human HL-60 cells assessed as accumulation of cells at S phase at 1 nM after 24 to 72 hrs by propidium iodide staining-based flow cytometric analysis; format: functional; conditions: time 24-72 hrs
[9] = tested on: HeLa; experiment: Induction of cell cycle arrest in human HeLa cells assessed as accumulation of cells at S phase at 1 nM after 24 to 72 hrs by propidium iodide staining-based flow cytometric analysis; format: functional; conditions: time 24-72 hrs
[10] = tested on: HeLa; experiment: Induction of cell cycle arrest in human HeLa cells assessed as accumulation of cells at G2/M phase at 100 nM after 48 hrs by propidium iodide staining-based flow cytometric analysis; format: functional
[11] = tested on: HL-60; experiment: Induction of cell cycle arrest in human HL-60 cells assessed as accumulation of cells at G2/M phase at 100 nM after 48 hrs by propidium iodide staining-based flow cytometric analysis; format: functional
[12] = tested on: HeLa; experiment: Induction of cell cycle arrest in human HeLa cells assessed as accumulation of cells at G2/M phase at 1 nM after 24 to 72 hrs by propidium iodide staining-based flow cytometric analysis; format: functional; conditions: time 24-72 hrs
[13] = tested on: HeLa; experiment: Induction of cell cycle arrest in human HeLa cells assessed as accumulation of cells at Sub-G0/G1 phase at 1 nM after 24 to 72 hrs by propidium iodide staining-based flow cytometric analysis; format: functional; conditions: time 24-72 hrs
[14] = tested on: HL-60; experiment: Induction of cell cycle arrest in human HL-60 cells assessed as accumulation of cells at G2/M phase at 100 nM after 24 hrs by propidium iodide staining-based flow cytometric analysis; format: functional
[15] = tested on: HL-60; experiment: Antiproliferative activity against human HL-60 cells assessed as inhibition of cell growth after 72 hrs by XTT assay; format: functional, cell-based; conditions: HL-60, 72 h
[16] = tested on: HeLa; experiment: Induction of apoptosis in human HeLa cells assessed as increase in cell accumulation at sub-G0/G1 phase at 100 nM incubated for 48 hrs by propidium iodide staining based flow cytometry; format: functional
[17] = tested on: HeLa; experiment: Induction of cell cycle arrest in human HeLa cells assessed as accumulation of cells at G2/M phase after 24 hrs by propidium iodide staining-based flow cytometric analysis; format: functional
[18] = tested on: HeLa; experiment: Induction of apoptosis in human HeLa cells assessed as increase in cell accumulation at sub-G0/G1 phase at 100 nM incubated for 24 hrs by propidium iodide staining based flow cytometry; format: functional
[19] = tested on: HT-29; experiment: Induction of cell cycle arrest in human HT-29 cells assessed as accumulation of cells at G0/G1 phase at 1 nM after 24 to 72 hrs by propidium iodide staining-based flow cytometric analysis; format: functional; conditions: time 24-72 hrs
[20] = tested on: HT-29; experiment: Induction of cell cycle arrest in human HT-29 cells assessed as accumulation of cells at S phase at 1 nM after 24 to 72 hrs by propidium iodide staining-based flow cytometric analysis; format: functional; conditions: time 24-72 hrs
[21] = target: Tubulin (Homo sapiens) (UniProt P68371+Q9H4B7+P0DPH7+P68366+Q13509+Q71U36+P04350+Q3ZCM7+P07437+P68363+Q9BQE3+Q6PEY2+Q13885+Q9BVA1+Q9BUF5); experiment: Induction of microtubule disruption in human HeLa cells at 1 uM measured after 24 hrs by immunofluorescence staining based confocal microscopic analysis; format: cell-based
[22] = tested on: HT-29; experiment: Induction of cell cycle arrest in human HT-29 cells assessed as accumulation of cells at G2/M phase at 1 nM after 24 to 72 hrs by propidium iodide staining-based flow cytometric analysis; format: functional; conditions: time 24-72 hrs
[23] = tested on: HT-29; experiment: Induction of cell cycle arrest in human HT-29 cells assessed as accumulation of cells at Sub-G0/G1 phase at 1 nM after 24 to 72 hrs by propidium iodide staining-based flow cytometric analysis; format: functional; conditions: time 24-72 hrs
[24] = tested on: HeLa; experiment: Induction of apoptosis in human HeLa cells assessed as increase in cleaved PARP level at 1 uM after 24 to 48 hrs by Western blot analysis; format: functional, cell-based; conditions: time 24-48 hrs
[25] = Aqueous solubility of the compound in pH 7.0 phosphate buffer at 2 mg incubated for 72 hrs by shake flask method; format: physicochemical
[26] = tested on: HL-60; experiment: Induction of cell cycle arrest in human HL-60 cells assessed as accumulation of cells at G2/M phase at 100 nM after 72 hrs by propidium iodide staining-based flow cytometric analysis; format: functional
[27] = tested on: HL-60; experiment: Induction of cell cycle arrest in human HL-60 cells assessed as accumulation of cells at G0/G1 phase at 1 nM after 24 to 72 hrs by propidium iodide staining-based flow cytometric analysis; format: functional; conditions: time 24-72 hrs
[28] = tested on: HEK293; experiment: Induction of mitotic arrest in human HEK293 cells; format: cell-based
[29] = tested on: HeLa; experiment: Induction of cell cycle arrest in human HeLa cells assessed as accumulation of cells at G2/M phase at 100 nM after 24 hrs by propidium iodide staining-based flow cytometric analysis; format: functional
[30] = tested on: HT-29; experiment: Induction of cell cycle arrest in human HT-29 cells assessed as accumulation of cells at G2/M phase after 24 hrs by propidium iodide staining-based flow cytometric analysis; format: functional
[31] = tested on: HeLa; experiment: Induction of cell cycle arrest in human HeLa cells assessed as accumulation of cells at G2/M phase at 100 nM after 72 hrs by propidium iodide staining-based flow cytometric analysis; format: functional
[32] = tested on: HL-60; experiment: Induction of cell cycle arrest in human HL-60 cells assessed as accumulation of cells at Sub-G0/G1 phase at 1 nM after 24 to 72 hrs by propidium iodide staining-based flow cytometric analysis; format: functional; conditions: time 24-72 hrs
[33] = tested on: HeLa; experiment: Induction of mitotic arrest in human HeLa cells assessed as increase in MPM-2 expression at 1 uM incubated for 24 to 48 hrs by Western blot analysis; format: functional, cell-based; conditions: time 24-48 hrs
[34] = tested on: HeLa; experiment: Induction of apoptosis in human HeLa cells assessed as accumulation of cells at sub-G0/G1 phase after 24 hrs by propidium iodide staining-based flow cytometric analysis; format: functional, cell-based
[35] = tested on: HeLa; experiment: Induction of cell cycle arrest in human HeLa cells assessed as accumulation of cells at G0/G1 phase at 1 nM after 24 to 72 hrs by propidium iodide staining-based flow cytometric analysis; format: functional; conditions: time 24-72 hrs
[36] = tested on: HL-60; experiment: Induction of apoptosis in human HL-60 cells assessed as increase in cell accumulation at sub-G0/G1 phase at 100 nM incubated for 72 hrs by propidium iodide staining based flow cytometry; format: functional
[37] = Inhibition of bovine brain tubulin polymerization incubated for 30 mins by turbidimetric assay; format: tissue-based, Bos taurus
[38] = tested on: HT-29; experiment: Induction of cell cycle arrest in human HT-29 cells assessed as accumulation of cells at G2/M phase at 100 nM after 48 hrs by propidium iodide staining-based flow cytometric analysis; format: functional
[39] = tested on: HT-29; experiment: Induction of cell cycle arrest in human HT-29 cells assessed as sum of Sub-G0/G1 and G2/M population at 1 uM after 48 hrs by propidium iodide staining based flow cytometry; format: functional
[40] = tested on: HT-29; experiment: Induction of cell cycle arrest in human HT-29 cells assessed as sum of Sub-G0/G1 and G2/M population at 10 uM after 48 hrs by propidium iodide staining based flow cytometry; format: functional
[41] = tested on: HT-29; experiment: Induction of apoptosis in human HT-29 cells assessed as increase in cell accumulation at sub-G0/G1 phase at 100 nM incubated for 48 hrs by propidium iodide staining based flow cytometry; format: functional
[42] = tested on: HT-29; experiment: Induction of cell cycle arrest in human HT-29 cells assessed as sum of Sub-G0/G1 and G2/M population at 1 uM after 72 hrs by propidium iodide staining based flow cytometry; format: functional
[43] = tested on: HT-29; experiment: Induction of cell cycle arrest in human HT-29 cells assessed as sum of Sub-G0/G1 and G2/M population at 10 uM after 72 hrs by propidium iodide staining based flow cytometry; format: functional
[44] = tested on: HT-29; experiment: Induction of apoptosis in human HT-29 cells assessed as increase in cell accumulation at sub-G0/G1 phase at 100 nM incubated for 72 hrs by propidium iodide staining based flow cytometry; format: functional
[45] = tested on: HT-29; experiment: Induction of cell cycle arrest in human HT-29 cells assessed as accumulation of cells at G2/M phase at 100 nM after 24 hrs by propidium iodide staining-based flow cytometric analysis; format: functional

IC50 [2]: 0.876 µM | IC50 [5]: 0.072 µM | IC50 [15]: 0.038 µM | Activity [21]: Active | solubility thermodynamic at 72 h [25]: 6.3 µg/mL (≈ 18.4 µM) | IC50 [37]: 1.6 µM
SMILES: C=C(c1cc(Cl)nc(SC)c1)c1ccc2c(c1)c(C=O)cn2C
Activity [1]: 15.1% | Activity [3]: 59.1% | Activity [4]: inactive | Activity [6]: Non-Toxic | Activity [7]: 20.9% | Activity [8]: inactive | Activity [9]: inactive | Activity [10]: 30.4% | Activity [11]: 40.5% | Activity [12]: inactive | Activity [13]: inactive | Activity [14]: 80.1% | Activity [16]: 47.6% | Activity [17]: Active | Activity [18]: 25.2% | Activity [19]: inactive | Activity [20]: inactive | Activity [22]: inactive | Activity [23]: inactive | Activity [24]: Active | Activity [26]: 22% | Activity [27]: inactive | Activity [28]: Toxic | Activity [29]: 56.9% | Activity [30]: inactive | Activity [31]: 7.9% | Activity [32]: inactive | Activity [33]: Active | Activity [34]: Active | Activity [35]: inactive | Activity [36]: 32.6% | Activity [38]: 11.8%

IC50 [2]: 0.195 µM | IC50 [5]: 0.057 µM | IC50 [15]: 0.093 µM | Activity [21]: Active | solubility thermodynamic at 72 h [25]: 5.1 µg/mL (≈ 14.3 µM) | IC50 [37]: 0.2 µM
SMILES: CSc1cc(C(=NO)c2ccc3c(c2)c(C#N)cn3C)cc(Cl)n1
Activity [1]: 4.7% | Activity [3]: 83.3% | Activity [4]: inactive | Activity [39]: 91.1% | Activity [6]: Non-Toxic | Activity [7]: 22.7% | Activity [8]: inactive | Activity [9]: inactive | Activity [10]: 46.9% | Activity [40]: 92.1% | Activity [11]: 39.7% | Activity [12]: inactive | Activity [13]: inactive | Activity [14]: 77.4% | Activity [16]: 35.9% | Activity [17]: Active | Activity [18]: 15.7% | Activity [19]: inactive | Activity [20]: inactive | Activity [22]: inactive | Activity [23]: inactive | Activity [24]: Active | Activity [26]: 23.3% | Activity [41]: 28.1% | Activity [27]: inactive | Activity [28]: Toxic | Activity [42]: 39.1% | Activity [29]: 73.2% | Activity [30]: Active | Activity [31]: 4.6% | Activity [32]: inactive | Activity [33]: Active | Activity [43]: 40.7% | Activity [34]: Active | Activity [35]: inactive | Activity [36]: 33.1% | Activity [44]: 64.7% | Activity [45]: 84.4% | Activity [38]: 54.9%
